One compound from patent publication US20240197722A1, “ANTICANCER COMPOSITION INDUCING CELL SENESCENCE AND CELL DEATH” (OSTEONEUROGEN INC., priority 2021, published 2024) can be followed below.

The test system of data set [1] is H358 cells. As to the kind of experiment: Microscopic observation of H358 cells. It counts as cell-based. The conditions noted are these: H358, 10 μM, 72 hours. On the procedure: (§1) H358 cells were seeded in 96-well plates at a concentration of 3×10^4 cells/well for 24 hours.
The test system of a further data set is PC3 cells. Put plainly: Immunocytochemistry for multinucleation of PC3 cells. Conditions: PC3, treated by concentration. In kind it is cell-based, human.
The test system of another data set is PC3. As to the kind of experiment: CCK-8 cell proliferation assay in PC3 cells. It counts as cell-based. The conditions noted are these: Homo sapiens, PC-3; PC3, CCK-8, 72 hours.
Data set [2] has as its system H358 cells. Put plainly: CCK-8 cell proliferation assay in H358 cells. In kind it is cell-based. On the procedure:
as §1
(Tetrazolium dyes change colour on reduction, which living cells bring about.)

The test system of a further data set is MCF7. As to the kind of experiment: CCK-8 cell proliferation assay in MCF7 cells. Conditions: Homo sapiens; MCF7, CCK-8, 72 hours. It counts as cell-based.
A further data set has as its system NHLF cells. As to the kind of experiment: Mitochondrial membrane potential (MTMP) analysis in NHLF. In kind it is cell-based, human. Conditions: measured with MTMP, Caspase3 and LDH, FIG. 20.
The test system of data set [3] is A549 cells. As to the kind of experiment: Western blot of cell cycle kinases in A549 cells. It counts as cell-based. The conditions noted are these: A549, 50 μM, 24 hours. For orientation: In western blotting, separated proteins are transferred to a membrane and probed.
Data set [4] concerns A549 cells. Put plainly: TUNEL and 7AAD apoptosis analysis of A549 cells. In kind it is cell-based. On the procedure:
The TUNEL analysis was performed by using the TUNEL assay kit (Abcam, ab66110) according to the manufacturer's instructions. […] After 24 hours, the cells were harvested and fixed in cold 70% ethanol, and 50 μL of a DNA labeling solution (10 μL of TdT reaction buffer, […], 8 μL of Br-dUTP, 32.5 μL of ddH2O) was added thereto. After 1-hour incubation at 37° C., the cells were washed twice with 300 μL of rinse buffer, and an antibody solution (5 μL of Anti-BrdU-Red antibody, 95 μL rinse buffer) was prepared and added to the washed cells, and the cells were incubated in the dark at room temperature for 30 minutes. 300 μL of 7-AAD/RNase solution was added at last. Each sample was analyzed by using Accuri C6 Plus (BD Bioscience).

With `COc1ccc(-c2cc(=O)c3c(O)c(OC)c(OCCN4CCNC(=O)C4)cc3o2)cc1OC` [ONG41008], in the data set on H358 cells [1], the mitotic disruption entry is given as “observed”. Further, the multinucleation result with PC3 cells is “observed”. Further, the IC50 (commonly the concentration needed to halve the response being measured) was 32 µM with PC3 and 15.4 µM in the data set with MCF7. Also, the inhibition of proliferation result in the data set with H358 cells [2] (H358, 30 μM or more, 72 hours) is reported as “inhibited the proliferation of non-small cell lung cancer cells to a similar level”. Further, the “difference between IC50 of paclitaxel and ONG41008” value in the data set with H358 cells [2] (H358, 72 hours, FIG. 9) is given as 14 fold. In addition, in the data set with NHLF cells, the “apoptosis in normal cells” value is recorded as “did not induce significant apoptosis”. In the data set on A549 cells [3], the CDK2 expression result is on record as “inhibited”. In addition, the CDK6 expression entry in the data set on A549 cells [3] is given as “inhibited”. Moreover, the apoptosis result with A549 cells [4] (A549, 48 hours of treatment) is listed as “apoptosis was observed”; in the data set on A549 cells [4] (A549, 72 hours of treatment), “clearly observed in a compound concentration-dependent manner”.
